ChEMBL document CHEMBL5352440, “Promising antimalarials targeting apicoplast DNA polymerase from Plasmodium falciparum” (Eur J Med Chem, 2022)
The source made the active and inactive calls. No cut-off for these calls is given here.

Legend:
Plasmodium falciparum [1] = test: Antiparasitic activity against Plasmodium falciparum NF54 with attB plasmid infected in red blood cells assessed as reduction in parasitemia incubated for 72 hrs; assay type: functional, organism-based, Red blood cell; settings: NF54, Erythrocyte
[2] = molecular target: DNA polymerase I (Escherichia coli) (UniProt P00582); test: Inhibition of Escherichia coli DNA polymerase I
[3] = molecular target: T1, DNA-directed DNA polymerase (Enterobacteria phage T4) (UniProt P04415); test: Inhibition of Enterobacteria T4 phage DNA polymerase
T1 sequence (whole entry): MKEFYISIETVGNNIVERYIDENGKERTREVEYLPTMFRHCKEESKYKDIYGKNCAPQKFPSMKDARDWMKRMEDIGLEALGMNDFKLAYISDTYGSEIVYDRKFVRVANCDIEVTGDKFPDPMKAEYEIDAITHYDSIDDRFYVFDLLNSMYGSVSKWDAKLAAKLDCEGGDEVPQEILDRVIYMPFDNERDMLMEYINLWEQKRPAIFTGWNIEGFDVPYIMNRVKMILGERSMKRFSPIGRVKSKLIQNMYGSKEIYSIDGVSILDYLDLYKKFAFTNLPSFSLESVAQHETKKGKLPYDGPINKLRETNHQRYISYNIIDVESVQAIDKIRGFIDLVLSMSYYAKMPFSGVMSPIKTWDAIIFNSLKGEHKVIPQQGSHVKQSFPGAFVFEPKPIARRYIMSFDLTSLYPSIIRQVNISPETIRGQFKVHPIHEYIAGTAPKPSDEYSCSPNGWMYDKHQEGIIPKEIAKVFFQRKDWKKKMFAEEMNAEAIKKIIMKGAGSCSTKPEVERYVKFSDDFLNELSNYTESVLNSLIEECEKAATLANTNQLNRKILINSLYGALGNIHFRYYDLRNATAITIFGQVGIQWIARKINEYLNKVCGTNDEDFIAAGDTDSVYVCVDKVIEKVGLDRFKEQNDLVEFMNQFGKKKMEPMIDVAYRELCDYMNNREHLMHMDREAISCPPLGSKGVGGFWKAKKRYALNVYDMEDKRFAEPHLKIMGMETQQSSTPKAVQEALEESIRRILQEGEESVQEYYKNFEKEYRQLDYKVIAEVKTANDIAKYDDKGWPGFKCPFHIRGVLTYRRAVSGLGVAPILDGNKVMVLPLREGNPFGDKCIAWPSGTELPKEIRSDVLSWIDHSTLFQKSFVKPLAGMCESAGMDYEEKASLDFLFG

Plasmodium falciparum [4] = test: Inhibition of plasmodium falciparum apicoplast DNA polymerase exonuclease activity using blunt-ended double stranded oligonucleotide with 2-aminopurine at position 1 on 3' end as substrate assessed as exonuclease specific activity at 100 uM (reference value: 2.2 +/- 0.09%)
Plasmodium falciparum [5] = test: Inhibition of plasmodium falciparum apicoplast DNA polymerase exonuclease activity using blunt-ended double stranded oligonucleotide with 2-aminopurine at position 1 on 3' end as substrate assessed as reduction in exonuclease proofreading activity at 3'-5' direction at 100 uM relative to control
[6] = Inhibition of plasmodium falciparum apicoplast DNA polymerase exonuclease activity using blunt-ended double stranded oligonucleotide with 2-aminopurine at position 1 on 3' end as substrate assessed as reduction in exonuclease proofreading activity at 3'-5' direction
Plasmodium falciparum [7] = test: Competitive inhibition of Plasmodium falciparum apicoplast DNA polymerase assessed as inhibition constant for lower affinity site in presence of various concentrations of dNTPs by molecular beacon assay
Plasmodium falciparum [8] = test: Non-competitive inhibition of Plasmodium falciparum apicoplast DNA polymerase assessed as inhibition constant for higher affinity site in presence of various concentrations of dNTPs by molecular beacon assay
Plasmodium falciparum [9] = test: Non-competitive inhibition of Plasmodium falciparum apicoplast DNA polymerase assessed as inhibition constant for lower affinity site in presence of various concentrations of dNTPs by molecular beacon assay
Plasmodium falciparum [10] = test: Antiparasitic activity against Plasmodium falciparum NF54 with attB plasmid infected in red blood cells assessed as reduction in parasitemia incubated for 96 hrs in presence of isopentenyl pyrophosphate by flow cytometry analysis; assay type: functional, organism-based; settings: Red blood cell

Sequence of DNA polymerase I (Escherichia coli) (P00582 whole entry): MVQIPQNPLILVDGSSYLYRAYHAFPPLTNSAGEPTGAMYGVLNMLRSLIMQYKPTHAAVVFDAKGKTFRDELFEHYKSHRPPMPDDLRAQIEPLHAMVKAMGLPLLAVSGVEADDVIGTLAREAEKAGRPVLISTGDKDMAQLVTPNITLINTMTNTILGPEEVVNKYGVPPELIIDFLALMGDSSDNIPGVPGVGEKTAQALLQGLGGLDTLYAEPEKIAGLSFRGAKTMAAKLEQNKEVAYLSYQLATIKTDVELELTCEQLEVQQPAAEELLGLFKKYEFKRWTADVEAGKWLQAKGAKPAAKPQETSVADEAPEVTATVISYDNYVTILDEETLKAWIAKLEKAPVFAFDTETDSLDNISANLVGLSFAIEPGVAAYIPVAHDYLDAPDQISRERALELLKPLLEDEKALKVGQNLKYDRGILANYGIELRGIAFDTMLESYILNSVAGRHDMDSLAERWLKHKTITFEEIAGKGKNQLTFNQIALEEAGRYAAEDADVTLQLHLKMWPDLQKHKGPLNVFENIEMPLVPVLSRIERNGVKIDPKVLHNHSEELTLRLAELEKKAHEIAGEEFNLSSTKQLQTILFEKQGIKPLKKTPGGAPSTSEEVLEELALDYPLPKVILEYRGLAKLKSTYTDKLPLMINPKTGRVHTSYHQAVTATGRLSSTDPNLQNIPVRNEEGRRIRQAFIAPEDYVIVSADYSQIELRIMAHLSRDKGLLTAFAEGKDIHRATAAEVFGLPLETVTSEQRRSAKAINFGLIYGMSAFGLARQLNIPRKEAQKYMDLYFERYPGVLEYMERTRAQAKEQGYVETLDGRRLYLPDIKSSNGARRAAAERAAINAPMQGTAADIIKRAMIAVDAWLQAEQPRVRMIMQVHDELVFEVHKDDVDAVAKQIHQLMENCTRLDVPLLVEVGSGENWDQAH

Row | Compound | EC50 (Plasmodium falciparum [1]) [µM] | inhibition [2] | inhibition [3] | Activity (Plasmodium falciparum [4]) [U] | inhibition (Plasmodium falciparum [5]) [%] | IC50 [6] [µM] | KiH (Plasmodium falciparum [7]) [µM] | KiH (Plasmodium falciparum [8]) [µM] | KiL (Plasmodium falciparum [9]) [µM] | Activity (Plasmodium falciparum [10])
1 | CC(C)(C)c1ccc(S(=O)(=O)Nc2c3c(nn2-c2ccc(Cl)cc2)CSC3)cc1 | > 20 | inactive | inactive | 0.06 | > 90 | 21 | – | – | – | –
2 | CC(=O)Nc1c2c(nn1-c1cccc(Cl)c1)COC2 | > 20 | inactive | inactive | 2.2 | – | – | – | – | – | –
3 | Cc1ccc(-n2nc3c(c2NS(=O)(=O)c2ccc(C(C)(C)C)cc2)CSC3)cc1 | > 20 | inactive | inactive | 2.2 | – | – | – | – | – | –
4 | O=C(Nc1c2c(nn1-c1cccc(Cl)c1)COC2)c1ccc(-c2ccccc2)cc1 | > 20 | inactive | inactive | 1.2 | – | – | – | – | – | –
5 | Cc1cccc(-n2nc3c(c2NS(=O)(=O)c2ccc(C(C)(C)C)cc2)CSC3)c1 | > 20 | inactive | inactive | 2.3 | – | – | – | – | – | –
6 | CC(C)(C)c1ccc(S(=O)(=O)Nc2c3c(nn2-c2ccc(C(F)(F)F)cc2)CSC3)cc1 | > 20 | inactive | inactive | 0.01 | > 90 | 16 | – | – | – | –
7 | CC(C)(C)c1ccc(C(=O)Nc2c3c(nn2-c2cccc(Cl)c2)C[S+]([O-])C3)cc1 (stereo not drawn) | 4.8 | inactive | inactive | 1.9 | – | – | – | – | – | –
8 | O=C(Nc1c2c(nn1-c1cccc(Cl)c1)COC2)C(F)(F)F | > 20 | inactive | inactive | 2.3 | – | – | – | – | – | –
9 | CC(C)(C)c1ccc(C(=O)Nc2c3c(nn2-c2cccc(C(F)(F)F)c2)CSC3)cc1 | 2 | inactive | inactive | 2.4 | < 50 | – | – | – | – | –
10 | O=C(Nc1c2c(nn1-c1cccc(Cl)c1)COC2)c1ccc2ccccc2c1 | 8 | inactive | inactive | 1.8 | – | – | – | – | – | –
11 | CC(C)(C)c1ccc(S(=O)(=O)Nc2c3c(nn2-c2cccc(C(F)(F)F)c2)CSC3)cc1 | > 20 | inactive | inactive | 0.06 | > 90 | – | – | – | – | –
12 | CC(C)(C)c1ccc(S(=O)(=O)Nc2c3c(nn2-c2cccc(Cl)c2)CSC3)cc1 | > 20 | inactive | inactive | 0.4 | > 90 | 40 | – | – | – | –

Now from value to molecule, other results behind:

Row | EC50 (Plasmodium falciparum [1]) [µM] | inhibition [2] | inhibition [3] | Activity (Plasmodium falciparum [4]) [U] | inhibition (Plasmodium falciparum [5]) [%] | IC50 [6] [µM] | KiH (Plasmodium falciparum [7]) [µM] | KiH (Plasmodium falciparum [8]) [µM] | KiL (Plasmodium falciparum [9]) [µM] | Compound | Activity (Plasmodium falciparum [10])
13 | 4.2 | inactive | inactive | 2.4 | < 50 | – | – | – | – | CC(C)(C)c1ccc(C(=O)Nc2c3c(nn2-c2ccc(Cl)cc2)CSC3)cc1 | –
14 | > 20 | inactive | inactive | 1.5 | < 50 | – | – | – | – | Cc1ccc(-n2nc3c(c2NC(=O)c2ccc(C(C)(C)C)cc2)CSC3)cc1 | –
15 | 1.2 | inactive | inactive | 2.1 | < 50 | – | – | – | – | CC(C)(C)c1ccc(NC(=O)Nc2c3c(nn2-c2ccc(C(F)(F)F)cc2)CSC3)cc1 | –
16 | 5.9 | inactive | inactive | 2.3 | < 50 | – | – | – | – | Cc1cccc(-n2nc3c(c2NC(=O)c2ccc(C(C)(C)C)cc2)CSC3)c1 | –
17 | 4.3 | inactive | inactive | 1.4 | < 50 | – | 11.9 | 2.17 | – | CC(C)(C)c1ccc(NC(=O)Nc2c3c(nn2-c2cccc(C(F)(F)F)c2)CSC3)cc1 | –
18 | 0.74 | inactive | inactive | 2.4 | – | – | – | – | – | CC(C)(C)c1ccc(NC(=O)Nc2c3c(nn2-c2cccc(Cl)c2)COC3)cc1 | –
19 | 4.6 | inactive | inactive | 1.2 | – | – | – | – | – | CC(C)(C)c1ccc(C(=O)Nc2c3c(nn2-c2cccc(Cl)c2)COC3)cc1 | –
20 | > 20 | inactive | inactive | 2.6 | – | – | – | – | – | CC(C)(C)C(=O)Nc1c2c(nn1-c1cccc(Cl)c1)COC2 | –
21 | 4.5 | inactive | inactive | 1.8 | < 50 | – | – | – | – | Cc1ccc(-n2nc3c(c2NC(=O)Nc2ccc(C(C)(C)C)cc2)CSC3)cc1 | –
22 | 3.1 | inactive | inactive | 1.2 | < 50 | – | – | – | – | Cc1cccc(-n2nc3c(c2NC(=O)Nc2ccc(C(C)(C)C)cc2)CSC3)c1 | –
23 | 2.5 | inactive | inactive | 1.7 | – | – | – | – | – | CC(C)(C)c1ccc(NC(=O)Nc2c3c(nn2-c2cnccn2)COC3)cc1 | –
24 | 4.8 | inactive | inactive | 2 | < 50 | – | – | – | – | CC(C)(C)c1ccc(C(=O)Nc2c3c(nn2-c2ccc(C(F)(F)F)cc2)CSC3)cc1 | –
25 | 3.3 | inactive | inactive | 1.3 | – | – | – | – | – | CC(C)(C)c1ccc(NC(=O)Nc2c3c(nn2-c2ccncc2)COC3)cc1 | –
26 | 1 | inactive | inactive | 2.1 | < 50 | – | – | 1.97 | 15 | CC(C)(C)c1ccc(NC(=O)Nc2c3c(nn2-c2ccc(Cl)cc2)CSC3)cc1 | –
27 | 4 | inactive | inactive | 1.6 | < 50 | – | – | 5.98 | 15.9 | CC(C)(C)c1ccc(C(=O)Nc2c3c(nn2-c2cccc(Cl)c2)CSC3)cc1 | Active
